From patent publication US11311538B2, “Compositions and methods for targeting cancers” (YALE UNIVERSITY, priority 2018, dated 2022) come the findings set out here.

In experiment [1] the test system is shSDHB-expressing HEK293FT tumor xenografts. Nature of the experiment: Tumor growth delay assay, shSDHB HEK293FT xenografts. The experiment is classed as in vivo, mouse. The source says: (§1) In vivo efficacy studies: HEK293FT xenografts. Female athymic nu/nu mice (Hsd:Athymic Nude-Foxnlnu, Envigo) were used for all in vivo xenograft studies. Mice were quarantined for at least 1 week before experimental manipulation. Tumors were formed using shRNA-expressing versions of the tumorigenic human embryonic kidney cell-derived line, HEK293FT. HEK293FT is a subline of HEK293 cells that has been transformed by expression of SV40 Large T-antigen. […], or shCTRL (non-targeted control) expressing HEK293FT cells were implanted subcutaneously (5×10^6 cells in 0.1 cc PBS) in the right flank of nude mice. Two efficacy studies were conducted. In one, mice were randomized into treatment and non-treated groups (10 mice/group) at day 3, with treatment initiation 4 days post implant. In a second independent in vivo efficacy study, mice were injected as above with 10 mice per group, and treatment was started only once the tumor volumes reached […]. For both studies, mice were visually observed daily and tumors were measured three times per week by calipers to determine tumor volume using the formula: Volume=L×W×W×0.532. Mice were fed with a grain based rodent diet containing Doxycycline at 200 mg/kg (Bioserv, Catalog #S3888). BMN-673 was solubilized in DMSO and diluted with PBS containing 10% dimethylacetamide (Sigma-Aldrich) and 6% Solutol (Sigma). BMN-673 (0.5 mg/kg, 0.2 cc), or vehicle (0.2 cc) was administered by oral gavage once daily for the duration of the experiment. Mean (geometric) tumor volume (mm^3) was plotted over time to monitor tumor growth. P-values were determined by ANOVA with repeated measures. In vivo efficacy studies: UOK 262 xenografts. Female athymic nu/nu mice (Hsd:Athymic Nude-Foxnlnu, Envigo) were used for all in vivo xenograft studies. Mice were quarantined for at least 1 week before experimental manipulation. UOK 262 cells were implanted subcutaneously using 5×10^6 cells in 0.1 cc PBS mixed with 0.1 cc of Corning Matrigel Matrix (Cat. No. 354234) per animal. Mice were randomized at day 3 day into two groups (n=10/group). […]

The test system of experiment [2] is shFH-expressing HEK293FT tumor xenografts. As to the kind of experiment: Tumor growth delay assay, shFH HEK293FT xenografts. The experiment is classed as in vivo, mouse.
Description: as §1

The next experiment deals with poly-ADP-ribose (PAR). As to the kind of experiment: Poly-ADP-Ribose ELISA in xenograft tumors. The experiment is classed as in vivo, mouse. The note with it: 24 h post single dose (FIG. 4K). The procedure: Tumors developed with mice on a rodent diet including doxycycline just as in the in vivo efficacy studies. Once tumors were at 80 mm^3 mice were gavaged with BMN-673 at 1 or 10 mg/kg or vehicle. Tumors were collected 24 hours later for and frozen at −80° C. The concentrations of BMN-673 in tumor samples were determined using liquid chromatography with tandem mass spectrometry (LC-MS/MS). In brief, an aliquot (30 μL) tumor homogenate was protein precipitated with volumes of methanol, and 5 μL of supernatant was injected into the LC-MS/MS system. LC-MS/MS analyses were performed on a Waters LC-MS/MS system consisting a Waters AQUITY UPLC system coupled with a TQ-XS triple quadrupole mass spectrometer (Milford, Mass., USA). […] BMN673 was monitored using the positive electrospray ionization mode at the most sensitive and specific mass transition, m/z 381.0>228.8. The linear calibration curve was established at BMN673 concentration range of 5-5000 nM in mouse serum. The precision and accuracy of quality control samples were within generally acceptable criteria for bioanalytical methods. Poly-ADP-Ribose ELISA. Poly-ADP-Ribose ELISA was performed per manufacturer's protocol using the PARP in vivo Pharmacodynamic Assay II Kit (Trevigen). 2 μg of protein input was used per replicate and luminescence reading were converted to pg PAR/μg protein using a standard curve. Statistics and Reproducibility. […]
In general terms: In an ELISA, binding on a coated surface is turned into a signal by an enzyme label.

For another experiment, the system named is UOK 262. Nature of the experiment: Clonogenic survival assay in cell lines of renal origin. The experiment is classed as cell-based, human. The note with it: FIG. 4C (BMN-673), FIG. 8J (mitomycin C).
The subject of the next experiment is HEK293FT and YUNK1 cells. As to the kind of experiment: Clonogenic survival assay, PARP inhibitors, knockdown or metabolite-treated cells. The experiment is classed as cell-based, human. Particulars: knockdown of SDHB and FH or exogenous dimethyl-fumarate or succinate (FIGS. 4A-4B, 8E-8I).
Experiment [3] deals with HLRCC UOK 262 xenograft tumors. Nature of the experiment: Tumor growth delay assay, UOK 262 xenografts. The experiment is classed as in vivo, mouse. The note with it: BMN-673 0.5 mg/kg gavage daily, started at average tumor size 250 mm^3 (FIG. 4M). The source says: In vivo efficacy studies: HEK293FT xenografts. Female athymic nu/nu mice (Hsd:Athymic Nude-Foxnlnu, Envigo) were used for all in vivo xenograft studies. Mice were quarantined for at least 1 week before experimental manipulation. Tumors were formed using shRNA-expressing versions of the tumorigenic human embryonic kidney cell-derived line, HEK293FT. HEK293FT is a subline of HEK293 cells that has been transformed by expression of SV40 Large T-antigen. […], or shCTRL (non-targeted control) expressing HEK293FT cells were implanted subcutaneously (5×10^6 cells in 0.1 cc PBS) in the right flank of nude mice. Two efficacy studies were conducted. In one, mice were randomized into treatment and non-treated groups (10 mice/group) at day 3, with treatment initiation 4 days post implant. In a second independent in vivo efficacy study, mice were injected as above with 10 mice per group, and treatment was started only once the tumor volumes reached […]. For both studies, mice were visually observed daily and tumors were measured three times per week by calipers to determine tumor volume using the formula: Volume=L×W×W×0.532. Mice were fed with a grain based rodent diet containing Doxycycline at 200 mg/kg (Bioserv, Catalog #S3888). […] P-values were determined by ANOVA with repeated measures. […]

The mark [4] stands for this setting: two separate sets of in vivo efficacy studies, 0.5 mg/kg oral gavage once daily.

Structures are written as SMILES.

As for `Cn1ncnc1[C@H]1c2n[nH]c(=O)c3cc(F)cc(c23)N[C@@H]1c1ccc(F)cc1` [BMN-673, BMN-673 (Talazoparib)], the “tumor growth vs vehicle, SDH-deficient tumors” value in experiment [1] (treatment after tumors reached 95-150 mm^3, 0.5 mg/kg oral gavage once daily (FIG. 4G)) is recorded as “inhibited the growth”. In experiment [1] (treatment beginning four days after implantation, 0.5 mg/kg oral gavage once daily (FIG. 4D)), the “tumor growth vs vehicle, shSDHB tumors” value is recorded as “robust suppression of tumor growth”. Further, the “growth of SDHB-deficient tumors” value in experiment [1] (setting [4]) was “significantly inhibited the growth”. Besides, the “tumor growth vs vehicle, FH-deficient tumors” value in experiment [2] (treatment after tumors reached 95-150 mm^3, 0.5 mg/kg oral gavage once daily (FIG. 4H)) is on record as “inhibited the growth”. The “tumor growth vs vehicle, shFH tumors” value in experiment [2] (treatment beginning four days after implantation, 0.5 mg/kg oral gavage once daily (FIG. 4E)) was “robust suppression of tumor growth”. Moreover, the “growth of FH-deficient tumors” value in experiment [2] (setting [4]) is given as “significantly inhibited the growth”. The “PAR levels by ELISA, SDHB knockdown vs shCTRL tumors” value in the experiment with poly-ADP-ribose (PAR) is “reduced to the same extent”. In the experiment with UOK 262, the “sensitivity of UOK 262 relative to FH-proficient cell lines of renal origin, clonogenic survival” value is “markedly more sensitive”. Besides, in the experiment with HEK293FT and YUNK1 cells, the “sensitivity to the PARP inhibitor, clonogenic survival” value is listed as “dramatic sensitivity”. In addition, in experiment [3], the “tumor growth delay, UOK 262 xenografts” value is recorded as “substantial growth delay”.
